Data on 16 compounds can be found in patent US9051300B2, “Herbicides” (Syngenta Limited, priority 2009, dated 2015).

What all share (type): in vivo
Data set [1] deals with Winter Wheat variety 'Hereward'. As to the kind of experiment: Crop damage to winter wheat, post-emergence spray. As to conditions: 250 g/ha, no safener, evaluated after 13 days, 100=total damage to plant, 0=no damage. The protocol: Seeds of the Winter Wheat variety ‘Hereward’ were sown in standard soil in pots. After 8 days cultivation under controlled conditions in a glasshouse (at 24/16° C., day/night; 14 hours light; 65% humidity), the plants were sprayed post-emergence with an aqueous spray solution derived from the formulation of the technical active ingredient in acetone/water (50:50) solution containing 0.5% Tween 20 (polyoxyethylene sorbitan monolaurate, CAS RN 9005-64-5). The test plants were then grown in a glasshouse under controlled conditions in a glasshouse (at 24/16° C., day/night; 14 hours light; 65% humidity) and watered twice daily. After 13 days for pre and post-emergence, the test was evaluated (100=total damage to plant; 0=no damage to plant).

For data set [2], the system named is Avena fatua (AVEFA). As to the kind of experiment: Pre-emergence herbicidal activity, glasshouse pot test. As to conditions: rate not printed (columns shifted), evaluated after 13 days, 100=total damage to plant, 0=no damage. On the procedure: (§1) Seeds of a variety of test species are sown in standard soil in pots. After cultivation for one day (pre-emergence) or after 8 days cultivation (post-emergence) under controlled conditions in a glasshouse (at 24/16° C., day/night; 14 hours light; 65% humidity), the plants are sprayed with an aqueous spray solution derived from the formulation of the technical active ingredient in acetone/water (50:50) solution containing 0.5% Tween 20 (polyoxyethylene sorbitan monolaurate, CAS RN 9005-64-5). The test plants are then grown in a glasshouse under controlled conditions in a glasshouse (at 24/16° C., day/night; 14 hours light; 65% humidity) and watered twice daily. After 13 days for pre and post-emergence, the test is evaluated (100=total damage to plant; 0=no damage to plant). Lolium perenne (LOLPE), Alopecurus myosuroides (ALOMY), Echinochloa crus-galli (ECHCG), Avena fatua (AVEFA) Pre-Emergence Activity

Data set [3] has as its system Lolium perenne (LOLPE). Described as above. To be noted: rate not printed (columns shifted), evaluated after 13 days, 100=total damage to plant, 0=no damage. On the procedure: as §1
In data set [4] the test system is Alopecurus myosuroides (ALOMY). The data set is described as above. As to conditions: rate not printed (columns shifted), evaluated after 13 days, 100=total damage to plant, 0=no damage. The protocol: as §1
In data set [5] the test system is Echinochloa crus-galli (ECHCG). The description is as above. As to conditions: rate not printed (columns shifted), evaluated after 13 days, 100=total damage to plant, 0=no damage. On the procedure:
as §1

The test system of data set [6] is Winter Wheat variety 'Hereward'. As to the kind of experiment: Crop damage to winter wheat seed treated with safener cloquintocet mexyl, post-emergence spray. As to conditions: 250 g/ha, seed treated with cloquintocet mexyl 0.5 g/kg seed, evaluated after 13 days, 100=total damage, 0=no damage. The protocol: Seeds of the Winter Wheat variety ‘Hereward’ were seed treated with a wettable powder formulation of the cereal herbicide safener, cloquintocet mexyl, at a rate of 0.5 grams per kilogram of dry seed prior to the initiation of glasshouse testing. One seed was sown per 1.5 inch plastic pot into a sandy loam soil at a depth of 1 cm, 8 days prior to application of the test compounds and was watered and grown under controlled conditions in a glasshouse (at 24/16° C., day/night; 14 hours light; 65% humidity). The plants were sprayed post-emergence with an aqueous spray solution derived from the formulation of the technical active ingredient in acetone/water (50:50) solution containing 0.5% Tween 20 (polyoxyethylene sorbitan monolaurate, CAS RN 9005-64-5). The test plants were then grown in a glasshouse under controlled conditions in a glasshouse (at 24/16° C., day/night; 14 hours light; 65% humidity) and watered twice daily. After 13 days for pre and post-emergence, the test was evaluated (100=total damage to plant; 0=no damage to plant).

Data set [7] deals with Avena fatua (AVEFA). As to the kind of experiment: Post-emergence herbicidal activity, glasshouse pot test. As to conditions: 312 h, evaluated after 13 days, 100=total damage to plant, 0=no damage. On the procedure:
as §1, with “Post-Emergence” for “Pre-Emergence”

Data set [8] has as its system Lolium perenne (LOLPE). The data set is described as above. To be noted: 312 h, evaluated after 13 days, 100=total damage to plant, 0=no damage. On the procedure: as §1, with “Post-Emergence” for “Pre-Emergence”
For data set [9], the system named is Alopecurus myosuroides (ALOMY). Described as above. To be noted: 312 h, evaluated after 13 days, 100=total damage to plant, 0=no damage. On the procedure: as §1, with “Post-Emergence” for “Pre-Emergence”
For data set [10], the system named is Echinochloa crus-galli (ECHCG). Described as above. To be noted: 312 h, evaluated after 13 days, 100=total damage to plant, 0=no damage. The protocol: as §1, with “Post-Emergence” for “Pre-Emergence”

For the compound `Cc1sc(-c2ccc(C(C)C)cc2)nc1C1C(=O)C/C(=C\C2CCOCC2)C1=O` (centres unmarked) [Compound A1], in data set [1], the “Winter Wheat (Hereward) (damage to plant)” value was found to be 20. Besides, in data set [2], the “Pre-Emergence Activity AVEFA (damage to plant)” value (from here on “Pre-Emergence Activity AVEFA”) came to 0. In [3], the “Pre-Emergence Activity LOLPE (damage to plant)” value (“Pre-Emergence Activity LOLPE” below) came to 10. In addition, in data set [4], the “Pre-Emergence Activity ALOMY (damage to plant)” value (shortened to “Pre-Emergence Activity ALOMY”) stood at 10. In addition, the “Pre-Emergence Activity ECHCG (damage to plant)” value (“Pre-Emergence Activity ECHCG” for short) in [5] was found to be 50. The “Winter Wheat (Hereward) + cloquintocet mexyl (damage to plant)” value in [6] is 0. Also, the pest or weed control at 250 g/ha amounted to 0% in data set [7], 0% in [8], 10% in data set [9] and 10% in data set [10].

Consider `Cc1sc(COc2ccc(Cl)cc2)nc1C1C(=O)CC(CC2CCOCC2)C1=O` (centres unmarked) [Compound A2], for which the pest or weed control at 250 g/ha in data set [7] turned out to be 0%; in data set [8] it was 10%; in data set [9] it was 10%; in [10], 20%.

As for `Cc1sc(COc2ccc(Cl)cc2)nc1C1C(=O)C/C(=C\C2CCOCC2)C1=O` (centres unmarked) [Compound A3], the pest or weed control at 250 g/ha in data set [7] is 0%; in data set [8], 0%; in [9], 10%; in [10], 20%.

With `Cc1sc(-c2ccc(Br)cn2)nc1C1C(=O)C/C(=C\C2CCOCC2)C1=O` (centres unmarked) [Compound A4], the pest or weed control at 250 g/ha in data set [7] was determined as 0%; in data set [8] it was 0%; in data set [9], 20%; in [10], 70%.

For the compound `Cc1sc(-c2ccc(Cl)cc2)cc1C1C(=O)CC(CC2CCOC2)C1=O` (centres unmarked) [Compound A5], the pest or weed control at 250 g/ha in data set [7] was 50%; in data set [8] it was 30%; in [9] it was 50%; in [10], 80%.

Consider `Cc1sc(-c2ccc(Cl)cc2)cc1C1C(=O)CC(CC2CCOCC2)C1=O` (centres unmarked) [Compound A6], for which, in data set [1], the “Winter Wheat (Hereward) (damage to plant)” value worked out at 10. Moreover, the “Winter Wheat (Hereward) + cloquintocet mexyl (damage to plant)” value in [6] is given as 0. In addition, the pest or weed control at 250 g/ha turned out to be 0% in data set [7], 0% in data set [8], 50% in data set [9] and 60% in data set [10].

For the compound `CCc1sc(-c2ccc(Cl)cc2)nc1C1C(=O)C/C(=C\C2CCOCC2)C1=O` (centres unmarked) [Compound A7], in data set [1], the “Winter Wheat (Hereward) (damage to plant)” value came to 90. Moreover, the “Pre-Emergence Activity AVEFA” value in [2] is reported as 70. Further, in data set [3], the “Pre-Emergence Activity LOLPE” value came to 80. Moreover, the “Pre-Emergence Activity ALOMY” value in data set [4] is 70. For the same compound, the “Pre-Emergence Activity ECHCG” value in data set [5] was found to be 100. Besides, the “Winter Wheat (Hereward) + cloquintocet mexyl (damage to plant)” value in data set [6] is listed as 40. Further, the pest or weed control at 250 g/ha in data set [7] stood at 100%; in data set [8] it was 60%; in data set [9], 90%; in data set [10], 100%.

Consider `Cc1cnc(-c2ccc(Cl)cc2)nc1C1C(=O)CC(CC2CCOCC2)C1=O` (centres unmarked) [Compound A8], for which, in data set [1], the “Winter Wheat (Hereward) (damage to plant)” value stood at 20. Moreover, the “Pre-Emergence Activity AVEFA” value in data set [2] amounted to 60. Also, the “Pre-Emergence Activity LOLPE” value in [3] amounted to 80. The “Pre-Emergence Activity ALOMY” value in [4] is 50. Also, in data set [5], the “Pre-Emergence Activity ECHCG” value was determined as 100. In addition, the “Winter Wheat (Hereward) + cloquintocet mexyl (damage to plant)” value in data set [6] stood at 0. For the same compound, the pest or weed control at 250 g/ha in [7] was 50%; in data set [8], 50%; in data set [9], 50%; in [10], 90%.

As to `Cc1cnc(-c2ccc(Cl)cc2)nc1C1C(=O)C/C(=C\C2CCOCC2)C1=O` (centres unmarked) [Compound A9], the “Winter Wheat (Hereward) (damage to plant)” value in data set [1] amounted to 50. The “Pre-Emergence Activity AVEFA” value in data set [2] is listed as 50. The “Pre-Emergence Activity LOLPE” value in data set [3] worked out at 70. The “Pre-Emergence Activity ALOMY” value in [4] is listed as 10. For the same compound, the “Pre-Emergence Activity ECHCG” value in [5] is 100. In [6], the “Winter Wheat (Hereward) + cloquintocet mexyl (damage to plant)” value is reported as 0. For the same compound, the pest or weed control at 250 g/ha was 60% in data set [7], 40% in data set [8], 20% in data set [9] and 100% in data set [10].

Regarding `Cc1sc(-c2ccc(Cl)cc2)cc1C1C(=O)C/C(=C\C2CCOCC2)C1=O` (centres unmarked) [Compound A10], the pest or weed control at 250 g/ha in data set [7] was 0%; in data set [8], 10%; in data set [9], 20%; in data set [10], 70%.

For the compound `Cc1sc(-c2ccc(Cl)cc2)nc1C1C(=O)C/C(=C\c2ccoc2)C1=O` (centres unmarked) [Compound A11], the pest or weed control at 250 g/ha was 0% in [7], 0% in data set [8], 10% in data set [9] and 80% in data set [10].

For the compound `Cc1sc(-c2ccc(Cl)cc2)nc1C1C(=O)CC(Cc2ccc(F)cn2)C1=O` (centres unmarked) [Compound A12], in data set [1], the “Winter Wheat (Hereward) (damage to plant)” value is 70. In addition, the “Pre-Emergence Activity AVEFA” value in data set [2] is 90. The “Pre-Emergence Activity LOLPE” value in [3] is given as 100. Also, the “Pre-Emergence Activity ALOMY” value in data set [4] is 100. Moreover, the “Pre-Emergence Activity ECHCG” value in data set [5] came to 100. In addition, the “Winter Wheat (Hereward) + cloquintocet mexyl (damage to plant)” value in data set [6] is 80. For the same compound, the pest or weed control at 250 g/ha in data set [7] was 90%; in [8], 100%; in data set [9] it was 100%; in data set [10], 100%.

In the case of `Cc1sc(-c2ccc(Cl)cc2)nc1C1C(=O)C/C(=C\c2ccc(F)cn2)C1=O` (centres unmarked) [Compound A13], the pest or weed control at 250 g/ha was found to be 10% in data set [7], 0% in [8], 10% in data set [9] and 20% in [10].

Turning to `Cc1sc(-c2ccc(Cl)cc2)nc1C1C(=O)C/C(=C/c2ccccn2)C1=O` (centres unmarked) [Compound A15], in data set [1], the “Winter Wheat (Hereward) (damage to plant)” value stood at 10. Also, the “Winter Wheat (Hereward) + cloquintocet mexyl (damage to plant)” value in [6] came out at 0. Also, the pest or weed control at 250 g/ha stood at 0% in data set [7], 0% in data set [8], 10% in [9] and 20% in [10].

With `Cc1sc(-c2ccc(Cl)cc2)nc1C1C(=O)CC(Cc2ccccn2)C1=O` (centres unmarked) [Compound A16], the “Winter Wheat (Hereward) (damage to plant)” value in [1] is listed as 60. Besides, the “Pre-Emergence Activity AVEFA” value in data set [2] is recorded as 80. The “Pre-Emergence Activity LOLPE” value in data set [3] amounted to 90. The “Pre-Emergence Activity ALOMY” value in [4] is on record as 90. In data set [5], the “Pre-Emergence Activity ECHCG” value was determined as 100. Moreover, in [6], the “Winter Wheat (Hereward) + cloquintocet mexyl (damage to plant)” value is listed as 60. In addition, the pest or weed control at 250 g/ha in data set [7] worked out at 100%; in data set [8], 100%; in [9] it was 90%; in data set [10] it was 100%.

For `Cc1ccc2c(cnn2C)c1C1C(=O)CC(CC2CCOCC2)C1=O` (centres unmarked) [Compound A19], the pest or weed control at 250 g/ha in data set [7] came out at 10%; in data set [8], 0%; in data set [9], 20%; in [10], 40%.

The term pest or weed control denotes how far the test organism was held down.
